Experimental data reported in the NIST ThermoML archive (doi:10.1021/je7001539).
± gives the expanded uncertainty stated by the source.

Details: Liquid

SMILES	vapor or sublimation pressure (243.15 K)	vapor or sublimation pressure (253.15 K)	vapor or sublimation pressure (263.15 K)	vapor or sublimation pressure (272.15 K)	vapor or sublimation pressure (283.15 K)	vapor or sublimation pressure (293.15 K)	vapor or sublimation pressure (303.15 K)	vapor or sublimation pressure (313.15 K)	vapor or sublimation pressure (323.15 K)	vapor or sublimation pressure (333.15 K)
CC(C)C [2-methylpropane]	46.2 ± 3.2 kPa	72 ± 3.5 kPa	107.9 ± 3.9 kPa	150.9 ± 4.6 kPa	220.1 ± 5.9 kPa	301.8 ± 7.6 kPa	404.3 ± 10 kPa	530.8 ± 13 kPa	684.3 ± 17 kPa	868.3 ± 22 kPa
FC(F)C(F)(F)F [pentafluoroethane]	228.5 ± 6.1 kPa	337.9 ± 8.5 kPa	483.1 ± 12 kPa	650.1 ± 16 kPa	908.8 ± 23 kPa	1204.5 ± 30 kPa	1566.8 ± 39 kPa	2005.6 ± 50 kPa	2533.2 ± 63 kPa	3167.4 ± 79 kPa
